Measured values taken from PMC8217170, “Phase Ib dose-escalation study of the hypoxia-modifier Myo-inositol trispyrophosphate in patients with hepatopancreatobiliary tumors” (Nature Communications, 2021).
Values joined by “and” are separate entries in the source; they are usually repeats but may differ in a detail not shown here. Identical values can stand only once. Like-named read-outs stand apart in the source and are kept apart here.

Assays:
[1] = in vivo
[2] = design: method as in unpublished data obtained from NormOxys; details: minipigs, once weekly; ref unpublished data obtained from NormOxys; cited from earlier work
[3] = design: method as in NormOxys phase I clinical trial; details: ref NormOxys phase I clinical trial, cited from earlier work
VEGFA = experiment: Serum angiogenesis marker, multiplex bead-based immunoassay (LEGENDplex); type: in vivo, human; design: VEGF: unit not given here; details: for VEGF: serum, duplicate wells
[4] = design: method as in unpublished data obtained from NormOxys; details: rats, once a week for 5 weeks; ref unpublished data obtained from NormOxys; cited from earlier work
PECAM1/CD31 [5] = experiment: Serum angiogenesis marker, multiplex bead-based immunoassay (LEGENDplex); type: in vivo, human; details: for PECAM_1: serum, duplicate wells
Procedure: Serum angiogenesis markers were quantified by multiplex bead-based immunoassays following provided instructions (LEGENDplex™, Biolegend, San Diego, CA/USA). For biochemical markers, the percentage change comparing before (day 1 0 h) with after (last day 9 h) ITPP treatment was calculated.

ANG2 = experiment: as above; type: in vivo, human; design: ANG2: unit not given here; details: for ANG2: serum, duplicate wells
[6] = test system: human colon carcinomatosis; design: method as in ref 12 (supplementary references); details: xenogeneic mouse model of human colon carcinomatosis; ref 12 (supplementary references); cited from earlier work
[7] = test system: colorectal liver metastasis; details: cited from earlier work; for Survival: ref 16 (supplementary references)
HIF2α = experiment: Immunohistochemistry of tumor tissue before vs after ITPP, one patient; type: in vivo, human; details: patient nr. 21, CRLM, only weak staining
Procedure: (§1) Samples were collected in 4% buffered formaldehyde, dehydrated, embedded in paraffin and cut into 5 µm sections and stained after antigen retrieval. Hematoxylin/eosin and Masson’s trichrome stains were performed according to standard protocols. The following antibodies were used for immunohistochemical staining: pan-B cytokeratin (CkpanB, Dako, M3515, dilution 1/50), HIF1α (Abcam, ab16066, dilution 1/400), HIF2α (Abcam, ab199, dilution 1/50), carbonic anhydrase 9 (CA9, Abcam, ab15086, dilution 1/3000), glucose transporter 1/SLC2A1 (GLUT1, Millipore, 07-1401, dilution 1/1000), PECAM1 / CD31 (Dako, M0823, dilution 1/10), ETS transcription factor (ERG, Roche, 790-4576, prediluted) and vimentin (VIM, Dako, M7020, dilution 1/250). For histological analyses, 5 random images of tumor areas of stained slides were taken at 40x magnification. Stained areas were isolated by color deconvolution and thresholding. Quantification of staining intensity was measured on thresholded areas, converted onto a scale from 0 (white, no staining) to 100 (black, completely stained) and compared between the sample taken before ITPP treatment and the one after. For calculation of percentage area stained, thresholded areas were compared to the complete area of the picture. ImageJ (V1.53c, National Institutes of Health, USA) was used for all histological analyses.
(§2) This analyses must be regarded with caution due to n=1!

[8] = test system: carbonic anhydrase 9 (CA9); experiment: as above; type: in vivo, human
Procedure: as §1, §2

HIF1α = experiment: as above; type: in vivo, human
Procedure: as §1, §2

PECAM1/CD31 [9] = experiment: as above; type: in vivo, human; details: CD31 stain, group After (ITPP), one value per image field; threshold 0-90
Procedure: as §1, §2

Vimentin = experiment: as above; type: in vivo, human
Procedure: as §1, §2

ERG = experiment: as above; type: in vivo, human
Procedure: as §1, §2

SLC2A1/GLUT1 = experiment: as above; type: in vivo, human; details: patient nr. 21, CRLM
Procedure: as §1, §2

[10] = following ITPP treatment, 27 patients
[11] = Patient 25, Cohort 8, PDAC, Day 3 post
[12] = Patient 25, Cohort 8, PDAC, Day 9 post
[13] = Patient 26, Cohort 8, PDAC, Day 3 post
[14] = Patient 26, Cohort 8, PDAC, Day 9 post
[15] = Patient 27, Cohort 8, CCC, Day 3 post
[16] = Patient 27, Cohort 8, CCC, Day 9 post
[17] = Patient 28, Cohort 8, CRLM, Day 3 post
[18] = Patient 28, Cohort 8, CRLM, Day 9 post

For `O=P1(O)OC2C3OP(=O)(O)OP(=O)(O)OC3C3OP(=O)(O)OP(=O)(O)OC3C2OP(=O)(O)O1` (centres unmarked) [ITPP, Myo-inositol trispyrophosphate], the “Time of peak plasma levels (Cmax) after infusion start” value ([1]; human) is given as 6 h, the “ITPP baseline levels at infusion start (Cmin)” value [1] is given as “below the detection threshold” and the “Human equivalent dose-corrected NOAEL” value [2] is given as 43,750 mg/m2. The “Subjects with treatment-emerged adverse effects (TEAEs)” value ([3]; ITPP-treated group, 750 to 5600 mg/m2, intravenous infusion during 4 h) was 9/24, the “Dose well tolerated in unaffected volunteers” value [3] was 5600 mg/m2 and the “Serious adverse effects or deaths associated with TEAEs” value [3] was “No serious adverse effects (SAEs) or deaths”. For the same compound, the “Share of patients with reduced VEGFA” value (VEGFA; [10]) was 44.4%, the VEGF (VEGFA; [11]) was 30.91 and the VEGF (VEGFA; [12]) was 33.24 and 35.03. The VEGF (VEGFA; [13]) was 5.98 and 4.62, the VEGF (VEGFA; [14]) was 11.09 and 13.08 and the VEGF (VEGFA; [15]) was 10.87 and 8.9. For the same compound, the VEGF (VEGFA; [16]) was 8.12 and 8.9, the VEGF (VEGFA; [17]) was 2.84 and the VEGF (VEGFA; [18]) was 2.84. The “Human equivalent dose-corrected NOAEL” value [4] was 15,000 mg/m2, the “Share of patients with reduced PECAM1” value (PECAM1/CD31 [5]; [10]) was 66.7% and the PECAM_1 (PECAM1/CD31 [5]; [11]) was 261.09. The PECAM_1 (PECAM1/CD31 [5]; [12]) was 287.51 and 289.5, the PECAM_1 (PECAM1/CD31 [5]; [13]) was 298.56 and 289.5 and the PECAM_1 (PECAM1/CD31 [5]; [14]) was 215.26 and 221.83. The PECAM_1 (PECAM1/CD31 [5]; [15]) was 350.64 and 331.88, the PECAM_1 (PECAM1/CD31 [5]; [16]) was 286.17 and 303.44 and the PECAM_1 (PECAM1/CD31 [5]; [17]) was 299.11 and 271.68. The PECAM_1 (PECAM1/CD31 [5]; [18]) was 262.91 and 211.07, the “Share of patients with reduced ANG2” value (ANG2; [10]) was 59.3% and the ANG2 (ANG2; [11]) was 228.25. For the same compound, the ANG2 (ANG2; [12]) was 251.99 and 267.93, the ANG2 (ANG2; [13]) was 4.97 and 2.94 and the ANG2 (ANG2; [14]) was 13.32 and 15.98. The ANG2 (ANG2; [15]) was 207.26 and 180.83, the ANG2 (ANG2; [16]) was 218.06 and 212.68 and the ANG2 (ANG2; [17]) was 323.31 and 262.92. For the same compound, the ANG2 (ANG2; [18]) was 200.18 and 179.44, the “Decrease of tumor growth compared with capecitabine” value [6] was “more efficient than capecitabine” and the Survival ([7]; FOLFOX combined with ITPP, 10 days, five times each on alternate days) was 153 days. The Survival ([7]; FOLFOX given following ITPP treatment) was 152 days, the Survival ([7]; ITPP alone) was 65.5 days and the Extension of survival ([7]; syngeneic mouse model of colorectal liver metastasis, 17 (supplementary references)) was 60%. The “HIF2α staining, before vs after ITPP treatment” value (HIF2α) was “no difference”, the “%Area” value ([8]; CAIX stain, group After (ITPP), one value per image field, threshold 0-130) was 0.006% and 0.014% and 0.943% and 0.008% and 0.048% and the “Expression of carbonic anhydrase 9 (CA9) after ITPP treatment” value ([8]; patient nr. 21, CRLM) was “decreased”. For the same compound, the “%Area” value (HIF1α; HIF1a stain, group After (ITPP), one value per image field, threshold 0-220) was 60.518% and 62.226% and 71.026% and 45.098% and 63.507%, the “HIF1α staining, before vs after ITPP treatment” value (HIF1α; patient nr. 21, CRLM, only weak staining) was “no difference” and the “%Area” value (PECAM1/CD31 [9]) was 1.371% and 1.754% and 0.512% and 2.094% and 0.52%. The “%Area” value (Vimentin; Vim stain, group After (ITPP), one value per image field, threshold 0-160) was 29.786% and 30.117% and 24.166% and 28.151% and 26.502%, the “Vimentin after ITPP administration” value (Vimentin; patient nr. 21, CRLM) was “decreased” and the “%Area” value (ERG; Erg stain, group After (ITPP), one value per image field, threshold 0-130) was 0.53% and 0.557% and 0.323% and 0.603% and 0.393%. For the same compound, the “ERG after ITPP treatment” value (ERG; patient nr. 21, CRLM) was “more abundant” and the “Expression of SLC2A1/GLUT1 in cancer cells after ITPP treatment” value (SLC2A1/GLUT1) was “downregulated”.
